From PubChem BioAssay AID2060490 (Molecular Pharmacology Branch, DTP, NCI, 2025)
pIC50: −log10 of the molar value.

Test system: 885512-296-R-J2-PDC complex spheroid viability
Assay: Anticancer human tumor 885512-296-R-J2-PDC patient-derived breast carcinoma cell line growth inhibition [GQUAD]
Conditions: for pIC50: curve of first compound; for viability, T/C: stronger effect = lower value
Summary of the method: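 Tumor cells were grown as complex spheroids with HUVEC endothelial cells and mesenchymal stem cells as stroma. G-quadruplex stabilizers were combined with targeted agents over half-log dilutions from near the clinical Cmax, or from 10 microM.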

[1] = second compound 0.0316 µM, first compound 0.0316 µM
[2] = second compound 0.0316 µM, first compound 0.316 µM
[3] = second compound 0.1 µM, first compound 0.0316 µM
[4] = second compound 0.1 µM, first compound 0.316 µM
[5] = second compound 0.316 µM, first compound 0.0316 µM
[6] = second compound 0.316 µM, first compound 0.316 µM
[7] = second compound 1 µM, first compound 0.0316 µM
[8] = second compound 1 µM, first compound 0.316 µM
[9] = second compound 3.16 µM, first compound 0.0316 µM
[10] = second compound 3.16 µM, first compound 0.316 µM
[11] = second compound 10 µM, first compound 0.0316 µM
[12] = second compound 10 µM, first compound 0.316 µM
[13] = second compound 0.0316 µM, first compound 0.1 µM
[14] = second compound 0.0316 µM, first compound 1 µM
[15] = second compound 0.0316 µM, first compound 3.16 µM
[16] = second compound 0.0316 µM, first compound 10 µM
[17] = second compound 0.1 µM, first compound 0.1 µM
[18] = second compound 0.1 µM, first compound 1 µM
[19] = second compound 0.1 µM, first compound 3.16 µM
[20] = second compound 0.1 µM, first compound 10 µM
[21] = second compound 0.316 µM, first compound 0.1 µM
[22] = second compound 0.316 µM, first compound 1 µM
[23] = second compound 0.316 µM, first compound 3.16 µM
[24] = second compound 0.316 µM, first compound 10 µM
[25] = second compound 1 µM, first compound 0.1 µM
[26] = second compound 1 µM, first compound 1 µM
[27] = second compound 1 µM, first compound 3.16 µM
[28] = second compound 1 µM, first compound 10 µM
[29] = second compound 3.16 µM, first compound 0.1 µM
[30] = second compound 3.16 µM, first compound 1 µM
[31] = second compound 3.16 µM, first compound 3.16 µM
[32] = second compound 3.16 µM, first compound 10 µM
[33] = second compound 10 µM, first compound 0.1 µM
[34] = second compound 10 µM, first compound 1 µM
[35] = second compound 10 µM, first compound 3.16 µM
[36] = second compound 10 µM, first compound 10 µM
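Note: spheroids exposed to the compounds for one week.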
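Throughout, for viability, T/C: percent of tumor spheroid viability relative to DMSO vehicle control wells.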

Work on CC[C@@]1(O)C(=O)OCc2c1cc1n(c2=O)Cc2cc3c(CN(C)C)c(O)ccc3nc2-1 + Cc1[nH]c2ccc(F)cc2c1-c1nc2c3cccnc3c3ncccc3c2[nH]1 yielded a pIC50 (second compound 0.0316 µM) of 7.58, a pIC50 (second compound 0.1 µM) of 7.53 and a pIC50 (second compound 0.316 µM) of 7.52. It also gave a pIC50 (second compound 1 µM) of 7.70, a pIC50 (second compound 3.16 µM) of over 9.00 and a pIC50 (second compound 10 µM) of over 9.00. For the same molecule, the viability, T/C (second compound 0.0316 µM, first compound 0.000999 µM) was 105%, the viability, T/C (second compound 0.0316 µM, first compound 0.00316 µM) was 88.5% and the viability, T/C (second compound 0.0316 µM, first compound 0.00999 µM) was 89.9%. It also gave a viability, T/C [1] of 41.7%, a viability, T/C (second compound 0.0316 µM, first compound 0.0999 µM) of 14.9% and a viability, T/C [2] of 6.49%. The viability, T/C (second compound 0.1 µM, first compound 0.000999 µM) was 110%, the viability, T/C (second compound 0.1 µM, first compound 0.00316 µM) was 101% and the viability, T/C (second compound 0.1 µM, first compound 0.00999 µM) was 98.5%. The viability, T/C [3] was 46.9%, the viability, T/C (second compound 0.1 µM, first compound 0.0999 µM) was 10.7% and the viability, T/C [4] was 4.48%. It also gave a viability, T/C (second compound 0.316 µM, first compound 0.000999 µM) of 96%, a viability, T/C (second compound 0.316 µM, first compound 0.00316 µM) of 101% and a viability, T/C (second compound 0.316 µM, first compound 0.00999 µM) of 87.3%. The viability, T/C [5] was 48.3%, the viability, T/C (second compound 0.316 µM, first compound 0.0999 µM) was 11.2% and the viability, T/C [6] was 3.51%. The viability, T/C (second compound 1 µM, first compound 0.000999 µM) was 68.2%, the viability, T/C (second compound 1 µM, first compound 0.00316 µM) was 74.6% and the viability, T/C (second compound 1 µM, first compound 0.00999 µM) was 72%. The viability, T/C [7] was 35.7%, the viability, T/C (second compound 1 µM, first compound 0.0999 µM) was 9.71% and the viability, T/C [8] was 3.76%. The viability, T/C (second compound 3.16 µM, first compound 0.000999 µM) was 14.8%, the viability, T/C (second compound 3.16 µM, first compound 0.00316 µM) was 23.3% and the viability, T/C (second compound 3.16 µM, first compound 0.00999 µM) was 14%. For the same molecule, the viability, T/C [9] was 6.97%, the viability, T/C (second compound 3.16 µM, first compound 0.0999 µM) was 2.52% and the viability, T/C [10] was 2.01%. The viability, T/C (second compound 10 µM, first compound 0.000999 µM) was 1.29%, the viability, T/C (second compound 10 µM, first compound 0.00316 µM) was 2.13% and the viability, T/C (second compound 10 µM, first compound 0.00999 µM) was 1.51%. It also gave a viability, T/C [11] of 1.58%, a viability, T/C (second compound 10 µM, first compound 0.0999 µM) of 1.12% and a viability, T/C [12] of 0.82%.
For COc1cccc2c1C(=O)c1c(O)c3c(c(O)c1C2=O)CC(O)(C(=O)CO)CC3OC1CC(N)C(O)C(C)O1 (stereo not drawn) + Cc1[nH]c2ccc(F)cc2c1-c1nc2c3cccnc3c3ncccc3c2[nH]1, the pIC50 (second compound 0.0316 µM) was 7.05, the pIC50 (second compound 0.1 µM) was 7.08 and the pIC50 (second compound 0.316 µM) was 7.09. It also gave a pIC50 (second compound 1 µM) of 7.24, a pIC50 (second compound 3.16 µM) of over 7.50 and a pIC50 (second compound 10 µM) of over 7.50. For the same molecule, the viability, T/C [1] was 96.2%, the viability, T/C [13] was 41.8% and the viability, T/C [2] was 25.3%. For the same molecule, the viability, T/C [14] was 9.04%, the viability, T/C [15] was 0.5% and the viability, T/C [16] was 2.46%. The viability, T/C [3] was 101%, the viability, T/C [17] was 36.4% and the viability, T/C [4] was 23.9%. For the same molecule, the viability, T/C [18] was 10.9%, the viability, T/C [19] was 0.36% and the viability, T/C [20] was 3.62%. It also gave a viability, T/C [5] of 85.5%, a viability, T/C [21] of 39.4% and a viability, T/C [6] of 25.1%. It also gave a viability, T/C [22] of 8.52%, a viability, T/C [23] of 0.35% and a viability, T/C [24] of 2.33%. For the same molecule, the viability, T/C [7] was 67.7%, the viability, T/C [25] was 32% and the viability, T/C [8] was 20%. It also gave a viability, T/C [26] of 7.54%, a viability, T/C [27] of 0.39% and a viability, T/C [28] of 2.51%. It also gave a viability, T/C [9] of 17.2%, a viability, T/C [29] of 12.3% and a viability, T/C [10] of 4.34%. The viability, T/C [30] was 2.57%, the viability, T/C [31] was 0.34% and the viability, T/C [32] was 1.2%. For the same molecule, the viability, T/C [11] was 1.64%, the viability, T/C [33] was 1.76% and the viability, T/C [12] was 2.1%. For the same molecule, the viability, T/C [34] was 1.15%, the viability, T/C [35] was 0.87% and the viability, T/C [36] was 0.81%.
Nc1ccn(C2OC(CO)C(O)C2(F)F)c(=O)n1 (stereo not drawn) + Cc1[nH]c2ccc(F)cc2c1-c1nc2c3cccnc3c3ncccc3c2[nH]1 gave a pIC50 (second compound 0.0316 µM) of over 7.50, a pIC50 (second compound 0.1 µM) of over 7.50 and a pIC50 (second compound 0.316 µM) of over 7.50. It also gave a pIC50 (second compound 1 µM) of over 7.50, a pIC50 (second compound 3.16 µM) of over 7.50 and a pIC50 (second compound 10 µM) of over 7.50. For the same molecule, the viability, T/C [1] was 14.6%, the viability, T/C [13] was 3.03% and the viability, T/C [2] was 2.43%. For the same molecule, the viability, T/C [14] was 3.01%, the viability, T/C [15] was 3.2% and the viability, T/C [16] was 2.56%. It also gave a viability, T/C [3] of 16.3%, a viability, T/C [17] of 3.26% and a viability, T/C [4] of 3.63%. The viability, T/C [18] was 3.04%, the viability, T/C [19] was 3% and the viability, T/C [20] was 3.74%. The viability, T/C [5] was 14.6%, the viability, T/C [21] was 3.44% and the viability, T/C [6] was 3.02%. The viability, T/C [22] was 2.57%, the viability, T/C [23] was 2.96% and the viability, T/C [24] was 3.36%. The viability, T/C [7] was 8.48%, the viability, T/C [25] was 2.45% and the viability, T/C [8] was 2.51%. It also gave a viability, T/C [26] of 2.76%, a viability, T/C [27] of 2.94% and a viability, T/C [28] of 2.65%. For the same molecule, the viability, T/C [9] was 2.21%, the viability, T/C [29] was 1.43% and the viability, T/C [10] was 1.74%. It also gave a viability, T/C [30] of 1.98%, a viability, T/C [31] of 1.96% and a viability, T/C [32] of 1.86%. The viability, T/C [11] was 1.33%, the viability, T/C [33] was 1.29% and the viability, T/C [12] was 1.17%. The viability, T/C [34] was 1.35%, the viability, T/C [35] was 1.44% and the viability, T/C [36] was 1.08%.
O=c1[nH]cc(F)c(=O)[nH]1 + Cc1[nH]c2ccc(F)cc2c1-c1nc2c3cccnc3c3ncccc3c2[nH]1 showed a pIC50 (second compound 0.0316 µM) of under 5.00, a pIC50 (second compound 0.1 µM) of under 5.00 and a pIC50 (second compound 0.316 µM) of under 5.00. The pIC50 (second compound 1 µM) was under 5.00, the pIC50 (second compound 3.16 µM) was over 7.50 and the pIC50 (second compound 10 µM) was over 7.50. The viability, T/C [1] was 98.3%, the viability, T/C [13] was 98.3% and the viability, T/C [2] was 104%. For the same molecule, the viability, T/C [14] was 122%, the viability, T/C [15] was 69.5% and the viability, T/C [16] was 59.3%. It also gave a viability, T/C [3] of 102%, a viability, T/C [17] of 106% and a viability, T/C [4] of 111%. For the same molecule, the viability, T/C [18] was 104%, the viability, T/C [19] was 70.1% and the viability, T/C [20] was 56.2%. For the same molecule, the viability, T/C [5] was 96.9%, the viability, T/C [21] was 90.1% and the viability, T/C [6] was 81.7%. It also gave a viability, T/C [22] of 104%, a viability, T/C [23] of 70.5% and a viability, T/C [24] of 61.1%. For the same molecule, the viability, T/C [7] was 80.4%, the viability, T/C [25] was 82.3% and the viability, T/C [8] was 73.7%. It also gave a viability, T/C [26] of 66.4%, a viability, T/C [27] of 53.9% and a viability, T/C [28] of 51.6%. It also gave a viability, T/C [9] of 22%, a viability, T/C [29] of 18.2% and a viability, T/C [10] of 14.3%. The viability, T/C [30] was 16.8%, the viability, T/C [31] was 11.4% and the viability, T/C [32] was 9.54%. For the same molecule, the viability, T/C [11] was 1.17%, the viability, T/C [33] was 2.62% and the viability, T/C [12] was 1.62%. For the same molecule, the viability, T/C [34] was 1.6%, the viability, T/C [35] was 1.85% and the viability, T/C [36] was 1.45%.
